Laboratory results from paper PMC7450057, “Enhancing intracellular accumulation and target engagement of PROTACs with reversible covalent chemistry” (Nature Communications, 2020).
Where “and” joins values, the source holds several entries; their conditions need not be identical. Identical values can stand only once.

Assays:
[1] = target: T1, full-length BTK protein (Homo sapiens, UniProt Q06187); assay: BTK binding assay (Kd, Eurofins DiscoverX); details: for Kd: full-length BTK, standard assay buffer in the presence of DTT (6 mM) (DiMe compounds: BTK_+DTT per Supplementary Data 1), duplicates
T1 construct: Kd was measured using the full-length BTK protein by Eurofins DiscoverX; T7 phage fusion or DNA tag for qPCR (generic vendor protocol); purchased Eurofins DiscoverX
Protocol: The dissociation equilibrium constant Kd was measured using the full-length BTK protein by Eurofins DiscoverX according to the following protocol: kinase-tagged T7 phage strains were prepared in an E. coli host derived from the BL21 strain. E. coli were grown to log-phase and infected with T7 phage and incubated with shaking at 32 °C until lysis. The lysates were centrifuged and filtered to remove cell debris. The remaining kinases were produced in HEK-293 cells and subsequently tagged with DNA for qPCR detection. […] The liganded beads were blocked with excess biotin and washed with blocking buffer (SeaBlock (Pierce), 1% BSA, 0.05% Tween 20, 1 mM DTT) to remove unbound ligand and to reduce non-specific binding. […] Test compounds were prepared as 111X stocks in 100% DMSO. […] The compounds were then diluted directly into the assays such that the final concentration of DMSO was 0.9%. All reactions performed in polypropylene 384-well plate. Each was a final volume of 0.02 mL. […] The kinase concentration in the eluates was measured by qPCR. For kinase-binding constant determination, an 11-point 3-fold serial dilution of each test compound was prepared in 100% DMSO at 100x final test concentration and subsequently diluted to 1x in the assay (final DMSO concentration = 1%). […] Binding constants (Kd values) were calculated with a standard dose-response curve using the Hill equation: Response=Background+Signal−Background/1+KdHillSlope/Dose^HillSlope
The Hill Slope was set to −1. Curves were fitted using a non-linear least square fit with the Levenberg-Marquardt algorithm.

[2] = target: T2, BTK-NanoLuc fusion (Homo sapiens, UniProt Q06187); assay: NanoBRET BTK in-cell target engagement assay; type: cell-based; details: for IC50: HEK-293 cells, BTK tracer 1.0 µM, Table 1 / Fig. 3c, triplicates, read-out: BTK TE IC50,TE; for K′P,D (relative intracellular accumulation coefficient): Kd (BTK)/IC50,TE (BTK); for intracellular accumulation of RC-1 relative to the compound: from K′P,D values, BTK (Table 1)
T2 construct: host or cells: HEK 293T/17
Protocol: The target engagement assay for BTK or CRBN was from Promega (BTK kit, Cat. No. N2500; CRBN kit, Cat. No. CS1810C136) and was performed according to the manufacture’s instruction with some modifications. Briefly, HEK 293/T17 cells (ATCC) were transiently transfected with BTK-NanoLuc® fusion vector or NanoLuc®-CRBN fusion vector (Promega) in 0.125 M CaCl2 and 1x HBS. Forty-eight hours after transfection, the cells were resuspended in Opti-MEM medium (Life Technologies, Cat. No. 11058021) at the density of 2 × 10^5 cells per mL and were plated into 96-well plates (Corning, Cat. No. CLS3600). Cells were incubated with 1.0 µM (BTK) or 0.5 µM (CRBN) NanoBRET™ Tracer and serially diluted unlabeled BTK PROTAC compounds (from 10 to 0.0032 µM, 5-fold dilution) for 2 h at 37 °С with 5% CO2 in an incubator. After 2 h incubation, the 3X Nano-Glo® Substrate with NanoLuc® extracellular inhibitor were added to cells and developed for 3 min at room temperature. BRET signals were collected using a BioTek SYNERGY H1 microplate reader equipped with a 450/80-nm BP filter for donor emission and a 610-nm LP filter for acceptor emission. BRET Ratio was calculated with the equation: [(Acceptor sample/Donor sample)–(Acceptor no tracer control/Donor no tracer control)] × 1000. The IC50 of the compound against its BTK or CRBN tracer was calculated using GraphPad Prism software.

[3] = tested on: MOLM-14 cells; assay: AlamarBlue cell viability assay, MOLM-14; details: Supplementary Figure 7, replicates
Protocol: The IC50 was calculated using GraphPad Prism software with a four-parameter dose-response curve fit.

T1 sequence (Q06187 whole entry, the tested form may be a part): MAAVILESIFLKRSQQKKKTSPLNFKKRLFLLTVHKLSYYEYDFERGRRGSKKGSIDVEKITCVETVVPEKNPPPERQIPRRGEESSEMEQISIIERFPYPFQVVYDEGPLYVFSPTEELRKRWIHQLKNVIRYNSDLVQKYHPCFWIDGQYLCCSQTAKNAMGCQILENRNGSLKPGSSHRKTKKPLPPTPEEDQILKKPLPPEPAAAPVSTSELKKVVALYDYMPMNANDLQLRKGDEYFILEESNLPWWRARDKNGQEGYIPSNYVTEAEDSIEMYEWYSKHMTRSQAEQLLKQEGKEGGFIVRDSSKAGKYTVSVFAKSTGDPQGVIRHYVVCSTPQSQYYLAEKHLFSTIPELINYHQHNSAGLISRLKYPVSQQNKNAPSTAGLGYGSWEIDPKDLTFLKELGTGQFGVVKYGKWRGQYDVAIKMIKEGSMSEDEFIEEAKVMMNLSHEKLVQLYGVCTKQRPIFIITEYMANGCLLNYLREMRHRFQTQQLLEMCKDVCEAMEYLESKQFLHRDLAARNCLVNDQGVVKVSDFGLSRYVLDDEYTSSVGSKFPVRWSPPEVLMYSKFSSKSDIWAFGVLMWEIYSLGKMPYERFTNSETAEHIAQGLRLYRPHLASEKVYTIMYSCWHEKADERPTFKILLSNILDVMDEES
T2 sequence (Q06187 whole entry, the tested form may be a part): as above

| Kd [1] [nM] | IC50 [2] [nM] | K′P,D (relative intracellular accumulation coefficient) [2] | intracellular accumulation of RC-1 relative to the compound [2] [folds] | Compound | Cell viability, MOML-14 ([3]; drug concentration 1.00E-05 M) | Cell viability, MOML-14 ([3]; drug concentration 1.60E-08 M) | Cell viability, MOML-14 ([3]; drug concentration 2.00E-06 M) | Cell viability, MOML-14 ([3]; drug concentration 3.20E-09 M) | Cell viability, MOML-14 ([3]; drug concentration 4.00E-07 M) | Cell viability, MOML-14 ([3]; drug concentration 6.40E-10 M) | Cell viability, MOML-14 ([3]; drug concentration 8.00E-08 M) | further results |
| --- | --- | --- | --- | --- | --- | --- | --- | --- | --- | --- | --- | --- |
| 29 | 930 | 3.1 × 10^−2 | 5 | CN(CCCNC(=O)CNc1cccc2c1C(=O)N(C1CCC(=O)NC1=O)C2=O)C(C)(C)CC(C#N)C(=O)N1CCC[C@@H](n2nc(-c3ccc(Oc4ccccc4)cc3)c3c(N)ncnc32)C1 (stereo partly shown) [RNC-1-CN-DiMe] | – | – | – | – | – | – | – | Signal ([1]; BTK_+DTT, compound concentration 0.0169 nM, listed as RNC-CN-DiMe): 2.50E-05 and 2.61E-05; Signal ([1]; BTK_+DTT, compound concentration 0.152 nM): 3.53E-05; Signal ([1]; BTK_+DTT, compound concentration 0.457 nM, listed as RNC-CN-DiMe): 3.21E-05 and 2.23E-05; Signal ([1]; BTK_+DTT, compound concentration 1.37 nM, listed as RNC-CN-DiMe): 2.55E-05 and 2.14E-05; Signal ([1]; BTK_+DTT, compound concentration 4.12 nM, listed as RNC-CN-DiMe): 2.68E-05 and 2.21E-05; Signal ([1]; BTK_+DTT, compound concentration 12.3 nM, listed as RNC-CN-DiMe): 2.12E-05 and 1.99E-05; Signal ([1]; BTK_+DTT, compound concentration 37 nM, listed as RNC-CN-DiMe): 1.30E-05 and 9.19E-06; Signal ([1]; BTK_+DTT, compound concentration 111 nM, listed as RNC-CN-DiMe): 5.21E-06 and 4.55E-06; Signal ([1]; BTK_+DTT, compound concentration 333 nM, listed as RNC-CN-DiMe): 1.18E-06 and 1.22E-06; Signal ([1]; BTK_+DTT, compound concentration 1000 nM, listed as RNC-CN-DiMe): 2.41E-07 and 2.28E-07; Signal ([1]; BTK_-DTT, compound concentration 0.152 nM): 2.77E-05 |
| 11 | 380 | 2.9 × 10^−2 | 5 | CN(CCCNC(=O)CNc1cccc2c1C(=O)N(C1CCC(=O)NC1=O)C2=O)C(C)(C)/C=C/C(=O)N1CCC[C@@H](n2nc(-c3ccc(Oc4ccccc4)cc3)c3c(N)ncnc32)C1 (stereo partly shown) [IRC-1-DiMe] | – | – | – | – | – | – | – | Signal ([1]; BTK_+DTT, compound concentration 0.0169 nM, listed as IRC-DiMe): 3.35E-05 and 3.58E-05; Signal ([1]; BTK_+DTT, compound concentration 0.152 nM, listed as IRC-DiMe): 3.30E-05 and 3.12E-05; Signal ([1]; BTK_+DTT, compound concentration 0.457 nM, listed as IRC-DiMe): 3.59E-05 and 3.58E-05; Signal ([1]; BTK_+DTT, compound concentration 1.37 nM, listed as IRC-DiMe): 2.65E-05 and 2.79E-05; Signal ([1]; BTK_+DTT, compound concentration 4.12 nM, listed as IRC-DiMe): 2.70E-05 and 2.48E-05; Signal ([1]; BTK_+DTT, compound concentration 12.3 nM): 1.55E-05; Signal ([1]; BTK_+DTT, compound concentration 37 nM, listed as IRC-DiMe): 6.57E-06 and 5.81E-06; Signal ([1]; BTK_+DTT, compound concentration 111 nM, listed as IRC-DiMe): 1.60E-06 and 1.57E-06; Signal ([1]; BTK_+DTT, compound concentration 333 nM, listed as IRC-DiMe): 2.79E-07 and 2.98E-07; Signal ([1]; BTK_+DTT, compound concentration 1000 nM, listed as IRC-DiMe): 9.10E-08 and 8.06E-08; Signal ([1]; BTK_-DTT, compound concentration 12.3 nM): 1.59E-05 |
| – | – | – | – | CN(C/C=C/C(=O)N1CCC[C@@H](n2nc(-c3ccc(Oc4ccccc4)cc3)c3c(N)ncnc32)C1)CCOCCNC(=O)CNc1ccc2c(c1)C(=O)N(C1CCC(=O)NC1=O)C2=O (stereo partly shown) [IRC-10] | 75.82 and 58.3378 and 68.0769 and 46.8499 and 54.5004 | 97.1244 and 98.6788 and 78.5933 and 90.154 and 64.4582 | 114.76 and 85.758 and 93.5542 and 68.0284 and 77.3303 | 99.6503 and 95.7157 and 83.0135 and 73.4201 and 68.8541 | 101.229 and 92.1212 and 88.8668 and 84.1065 and 86.0252 | 105.091 and 113.591 and 102.055 and 78.059 and 83.1593 | 111.6 and 85.6366 and 80.0019 and 73.9301 and 92.4127 | – |
| – | – | – | – | CN(CCCC(=O)N1CCC[C@@H](n2nc(-c3ccc(Oc4ccccc4)cc3)c3c(N)ncnc32)C1)CCOCCNC(=O)CNc1ccc2c(c1)C(=O)N(C1CCC(=O)NC1=O)C2=O (stereo partly shown) [RNC-10] | 20.4373 and 14.3566 and 19.5812 and 10.2077 and 15.081 | 105.787 and 111.889 and 72.4196 and 87.9176 and 69.5658 | 69.7853 and 58.8313 and 63.507 and 54.1116 and 44.6942 | 101.374 and 90.2665 and 79.5759 and 58.2825 and 70.4 | 94.3057 and 78.2807 and 83.198 and 62.2338 and 64.8242 | 98.3448 and 99.8376 and 85.8542 and 80.1905 and 70.3561 | 101.967 and 84.7346 and 87.9396 and 100.716 and 97.1814 | – |
| – | – | – | – | CN(CCCC(=O)N1CCC[C@@H](n2nc(-c3ccc(Oc4ccccc4)cc3)c3c(N)ncnc32)C1)CCOCCNC(=O)CNc1cccc2c1C(=O)N(C1CCC(=O)NC1=O)C2=O (stereo partly shown) [RNC-3] | 41.7673 and 39.1993 and 57.4163 and 48.1542 and 48.9004 | 96.7473 and 87.6169 and 107.151 and 102.3 and 127.409 | 75.1942 and 80.0887 and 89.5483 and 81.8665 and 89.4166 | 75.7649 and 76.4014 and 100.083 and 102.234 and 81.9543 | 62.3107 and 94.9036 and 99.6225 and 103.727 and 94.5305 | 107.063 and 96.7253 and 127.343 and 114.679 and 82.7444 | 77.6963 and 91.9187 and 116.522 and 86.0147 and 77.6085 | – |
| – | – | – | – | CN(C/C=C/C(=O)N1CCC[C@@H](n2nc(-c3ccc(Oc4ccccc4)cc3)c3c(N)ncnc32)C1)CCOCCNC(=O)CNc1cccc2c1C(=O)N(C1CCC(=O)NC1=O)C2=O (stereo partly shown) [IRC-3] | 33.9254 and 29.7755 and 25.5011 and 24.5466 and 23.5092 | 86.2431 and 93.4971 and 75.2168 and 81.4209 and 78.2878 | 87.4798 and 73.7851 and 74.2831 and 71.2537 and 90.0734 | 87.9238 and 88.7455 and 83.4544 and 84.1599 and 82.3547 | 86.2555 and 86.2763 and 83.0809 and 75.6111 and 85.2388 | 91.0487 and 98.1035 and 82.7281 and 78.682 and 82.9771 | 83.1182 and 78.35 (2×) and 67.9338 and 81.6492 | – |
